# Values quoted from earlier work as cited in US20040191214A1, “Nucleoside vaccine adjuvants” (priority 2001, published 2004).
# Tested on: lymphocyte
# Conditions: stated as known; see U.S. Pat. Nos. 6,130,326, 6,063,772, 5,767,097 to Tam
row,SMILES,stimulation of Type 1 or Type 2 (cytokine) response
1,"N=C(N)c1ncn([C@@H]2O[C@H](CO)[C@@H](O)[C@H]2O)n1 [Viramidine, 1-beta-D-ribofuranosyl-1,2,4-triazole-3-carboxamidine]",stimulate a Type 1 response
2,"Cl.N=C(N)c1cn([C@@H]2O[C@H](CO)[C@@H](O)[C@H]2O)c2nc[nH]c(=O)c12 [7-(β-D-ribofuranosyl)pyrrolo[2,3-d]4-pyrimidone-5-carboxamidine*HCl]",stimulate a Type 2 response
3,"NC(=O)c1ncn([C@@H]2O[C@H](CO)[C@@H](O)[C@H]2O)n1 [Ribavirin, 1-beta-D-ribofuranosyl-1,2,4-triazole-3-carboxamide]",stimulate a Type 1 response
4,"NC(=O)c1ncn([C@H]2O[C@@H](CO)[C@H](O)[C@@H]2O)n1 [Levovirin, 1-beta-L-ribofuranosyl-1,2,4-triazole-3-carboxamide]",stimulate a Type 1 response
